Test results from ChEMBL document CHEMBL5661965, “CI-1033, a pan-erbB tyrosine kinase inhibitor” (Semin Oncol, 2001).

Columns and labels:
Type in all cases: functional
A-431 [1] = experiment: Antitumor activity against human A-431 cells xenografted in mouse assessed as average tumor volume at 1.25 to 10 mg/kg/day, po started on day 14 post-implant and measured on day 23 (reference value: >1200 mg); settings: dose 1.25-10 mg/kg/day, time 23 day
A-431 [2] = experiment: Antitumor activity against human A-431 cells xenografted in mouse assessed as average tumor volume at 20 to 40 mg/kg/day, po started on day 14 post-implant and measured on day 23 (reference value: >1200 mg); settings: dose 20-40 mg/kg/day, time 23 day
A-431 [3] = experiment: Antitumor activity against human A-431 cells xenografted in mouse assessed as reduction in average tumor volume at 1.25 to 40 mg/kg/day, po started on day 14 post-implant, stopped on day 66, and then restarted on day 76 for 2 additional weeks; settings: dose 1.25-40 mg/kg/day, read-out: MED

## C=CC(=O)Nc1cc2c(Nc3ccc(F)c(Cl)c3)ncnc2cc1OCCCN1CCOCC1.Cl.Cl [CANERTINIB DIHYDROCHLORIDE]
A-431 [1]
  Activity: 175 mg
A-431 [2]
  Activity: <=100 mg
A-431 [3]
  minimal effective dose: 1.25 mg/kg/day
